Assay results: patent US20220202801A1, “USE OF COMPOUND IN PREPARATION OF DRUG FOR TREATING ATHEROSCLEROSIS” (GenEros Biopharma Ltd., priority 2019, published 2022)
Entries after “also recorded” stand apart in the source; their conditions may differ.

Assays:
ApoE knockout mice = assay: Four blood lipids in serum of ApoE knockout mice (Example 1); type: in vivo; conditions: for HDL-C / LDL-C / TC / TG: serum
Excerpt: Methods: SPF grade C57BL/6 ApoE −/−model mice were provided by Guangdong Medical Experimental Animal Center, laboratory animal production license No. SOCK (Guangdong) 2013-0002. Laboratory animal quality certificate number: 44007200048196). Mice were half male and half female, aged 8 to 12 weeks, and 72 animals in total. After four weeks of housing in a SPF-level animal facility, animals with less body weights were disposed. A total of 64 animals were randomly divided into 8 groups, 8 in each group, fed with 10% high-fat food, and received with different treatments. Animals were observed and administered with the medicines by gavage once daily. The body weights were measured once a week and continued for 58 days. […] The test sample was dissolved in dimethyl sulfoxide solution and prepared with 30% PEG300.
At the end of the experiment, animals were anesthetized with pentobarbital sodium. Blood was collected from the orbital venous plexus, and centrifuged at 3000 r/min at a low temperature for 10 min to separate the serum. The levels of total cholesterol TC, triglyceride TG, high-density lipoprotein HDL-C, and low-density lipoprotein LDL-C were measured, and the remaining serum was stored in a refrigerator at −80° C.
Statistical analysis: Data were expressed as the mean plus or minus the standard deviation (x± s), and analyzed by SPSS21.0 statistical software. […] The level of test is α=0.05.

[1] = system: atherosclerosis model induced by high-fat diet in ApoE knockout mice; assay: Ratio of atherosclerotic plaque area to total inner wall area of the aorta (En-Face, oil red; Example 2); type: in vivo
Excerpt: Methods: A total of 130 SPF grade C57BL/6 ApoE −/− model male mice aged 8 weeks were purchased from Charles River Laboratories (Beijing, China) (animal license number: SCXK (Beijing) 2016-0001, animal qualification certificate No.: 11400700331337). After one week of acclimatization in a SPF-grade animal facility, the animals with less weights were discarded and the rest was randomly divided into 11 groups, with 8 animals in each group. Except for the healthy control group, the rest were fed with 10% high-fat food (the first day of the high-fat diet was recorded as D1). Starting from the 8th week of the high-fat diet, each group of animals was orally given solvents or corresponding drugs, and the volume of administration was 10 ml/kg, once a day for 8 weeks. Animals were observed and administered by gavage once a day and the body weight were measured once a week for 56 days. […] The store solution of the test samples was dissolved in dimethyl sulfoxide solution and prepared with 30% PEG300.
Immediately after blood was taken from the heart, it was perfused through the left ventricle with 20 ml of normal saline. After bloodletting, the heart and aorta (from the aortic arch to the iliac artery) were isolated. The isolated artery was cut longitudinally from the aortic arch to the iliac artery, fixed in 4% paraformaldehyde for 30 minutes, synchronized with 60% isopropanol for 10 minutes, stained in 60% oil red for 30 minutes, and washed by 60% isopropanol 3 times, 5 minutes each time. Finally, the colored aorta was washed with deionized water and photographed. The proportion of the red plaque area was measured by Image Pro Plus 6.0 (Media Cybernetics, MD, US). The heart samples were fixed in 4% paraformaldehyde solution overnight and then placed in sucrose solution for dehydration. Then, it was embedded with OCT (Sakura, Japan) under a stereo microscope and made into 7 μm frozen sections. After HE staining, the slices were used for routine pathological examination. The outflow tract images were collected under an optical microscope at 4* magnification, and 4*, 10*, 20* and 40* magnification eyepieces were used for high-quality morphological observation. The detection standard referred to the histological classification standard of human atherosclerosis disease.
Evaluate the effect of different therapeutic drugs by the ratio of the area of atherosclerotic plaque to the total area of the inner wall of the aortic vessel (En-Face)
We adopted the widely accepted standard for the severity of arteriosclerosis in animal models, and analyzed the area of all plaques on the inner wall of the aorta. […] FIGS. 46A and 46B are histograms of the ratios of plaque area on the inner wall of the aorta in each treatment group. The values in FIGS. 46A and 46B are the ratios of plaques to the total area of the inner wall in each group, and the error is standard error±SEM. The statistical significance analysis is as follows: ***P<0.001 compared with the normal control group; #P<0.05 compared with the vehicle group; ##P<0.01, ###P<0.001, compared with the vehicle group through one-way ANOVA Dunnett's test; & represents P<0.05, compared with the vehicle group by t test.

[2] = half male and female, 1 mg/kg body weight
[3] = half male and female, 2 mg/kg body weight
[4] = half male and female, 5 mg/kg body weight
[5] = ♂, 5 mg/kg gavage QD, 58 days, 5 mg/kg
[6] = ♂, 5 mg/kg gavage QD, 58 days, listed as sample B, 5 mg/kg

With O=C(N/N=C/c1coc2ccccc2c1=O)c1cccnc1 [Sample B] the “regulation on blood lipid levels (overall)” value (ApoE knockout mice; Example 1, overall) was “have the effect of improving blood lipids”, the HDL-C (ApoE knockout mice; [2]) was 1.75 ± 0.69 mmol/L and the LDL-C (ApoE knockout mice; [2]) was 6.19 ± 2.64 mmol/L. It also gave a TC (ApoE knockout mice; [2]) of 19.56 ± 5.66 mmol/L, a TG (ApoE knockout mice; [2]) of 0.91 ± 0.69 mmol/L and an HDL-C (ApoE knockout mice; [3]) of 1.68 ± 0.39 mmol/L. It also gave an LDL-C (ApoE knockout mice; [3]) of 5.71 ± 1.80 mmol/L, a TC (ApoE knockout mice; [3]) of 19.01 ± 4.64 mmol/L and a TG (ApoE knockout mice; [3]) of 0.81 ± 0.30 mmol/L. For the same compound, the HDL-C (ApoE knockout mice; [4]) was 1.71 ± 0.45 mmol/L, the LDL-C (ApoE knockout mice; [4]) was 5.96 ± 2.17 mmol/L and the TC (ApoE knockout mice; [4]) was 19.76 ± 5.49 mmol/L. For the same compound, the TG (ApoE knockout mice; half male and female, 5 mg/kg body weight, 5 mg/kg) was 0.74 ± 0.35 mmol/L, the TG (ApoE knockout mice; half male and female, 5 mg/kg body weight, listed as sample B, 5 mg/kg) was “lower; also recorded: decreased” and the LDL-C (ApoE knockout mice; ♀, 1 mg/kg gavage QD, 58 days) was 4.32 ± 0.59 mmol/L. It also gave a TC (ApoE knockout mice; ♀, 1 mg/kg gavage QD, 58 days) of 15.50 ± 2.01 mmol/L, a TG (ApoE knockout mice; ♀, 1 mg/kg gavage QD, 58 days) of 0.57 ± 0.08 mmol/L and an HDL-C (ApoE knockout mice; ♀, 1 mg/kg gavage QD, 58 days, 1 mg/kg) of 1.32 ± 0.18 mmol/L. The HDL-C (ApoE knockout mice; ♀, 1 mg/kg gavage QD, 58 days, listed as sample B, 1 mg/kg) was “lower”, the LDL-C (ApoE knockout mice; ♀, 2 mg/kg gavage QD, 58 days) was 4.40 ± 0.96 mmol/L and the TC (ApoE knockout mice; ♀, 2 mg/kg gavage QD, 58 days) was 15.49 ± 2.98 mmol/L. The TG (ApoE knockout mice; ♀, 2 mg/kg gavage QD, 58 days) was 0.58 ± 0.10 mmol/L, the HDL-C (ApoE knockout mice; ♀, 2 mg/kg gavage QD, 58 days, 2 mg/kg) was 1.36 ± 0.16 mmol/L and the HDL-C (ApoE knockout mice; ♀, 2 mg/kg gavage QD, 58 days, listed as sample B, 2 mg/kg) was “lower”. The LDL-C (ApoE knockout mice; ♀, 5 mg/kg gavage QD, 58 days) was 4.61 ± 0.56 mmol/L, the TC (ApoE knockout mice; ♀, 5 mg/kg gavage QD, 58 days) was 16.21 ± 1.98 mmol/L and the TG (ApoE knockout mice; ♀, 5 mg/kg gavage QD, 58 days) was 0.65 ± 0.24 mmol/L. For the same compound, the HDL-C (ApoE knockout mice; ♀, 5 mg/kg gavage QD, 58 days, 5 mg/kg) was 1.38 ± 0.08 mmol/L, the HDL-C (ApoE knockout mice; ♀, 5 mg/kg gavage QD, 58 days, listed as sample B, 5 mg/kg) was “lower” and the HDL-C (ApoE knockout mice; ♂, 1 mg/kg gavage QD, 58 days) was 2.18 ± 0.75 mmol/L. The LDL-C (ApoE knockout mice; ♂, 1 mg/kg gavage QD, 58 days) was 8.07 ± 2.56 mmol/L, the TC (ApoE knockout mice; ♂, 1 mg/kg gavage QD, 58 days) was 23.63 ± 5.16 mmol/L and the TG (ApoE knockout mice; ♂, 1 mg/kg gavage QD, 58 days) was 1.26 ± 0.89 mmol/L. For the same compound, the LDL-C (ApoE knockout mice; ♂, 2 mg/kg gavage QD, 58 days) was 7.03 ± 1.41 mmol/L, the TC (ApoE knockout mice; ♂, 2 mg/kg gavage QD, 58 days) was 22.54 ± 2.88 mmol/L and the TG (ApoE knockout mice; ♂, 2 mg/kg gavage QD, 58 days) was 1.05 ± 0.25 mmol/L. For the same compound, the HDL-C (ApoE knockout mice; ♂, 2 mg/kg gavage QD, 58 days, 2 mg/kg) was 2.00 ± 0.23 mmol/L, the HDL-C (ApoE knockout mice; ♂, 2 mg/kg gavage QD, 58 days, listed as sample B, 2 mg/kg) was “lower” and the LDL-C (ApoE knockout mice; ♂, 5 mg/kg gavage QD, 58 days) was 7.31 ± 2.41 mmol/L. For the same compound, the TC (ApoE knockout mice; ♂, 5 mg/kg gavage QD, 58 days) was 23.32 ± 5.72 mmol/L, the HDL-C (ApoE knockout mice; [5]) was 2.04 ± 0.42 mmol/L and the TG (ApoE knockout mice; [5]) was 0.83 ± 0.46 mmol/L. The HDL-C (ApoE knockout mice; [6]) was “lower”, the TG (ApoE knockout mice; [6]) was “lower” and the “Mean of Plaque Ratio (plaque area to total inner wall area of aorta)” value ([1]; 2 mpk PO QD 8 weeks, high-fat diet) was 11.22%. The “symptoms of atherosclerosis under therapeutic intervention (mainly plaque area ratio)” value ([1]; different doses, Example 2) was “significantly alleviate the symptoms of atherosclerosis”.
